Laboratory results from patent US20240299394A1, “TARGETED TREATMENT FOR SKIN FRAGILITY DISEASES” (University of Washington, priority 2023, published 2024).

Assays:
Format in all cases: cell-based, human
[1] = tested on: NHEKs; assay: Immunoblot of cadherins and plakoglobin in NHEK lysates; details: 24 hours in E-medium, vs DMSO
Experimental: (§1) NHEKs were seeded at a density of 1×10^6 cells per well of 6-well cell culture dishes in M154. Upon reaching confluence, M154 was replaced with E-medium containing vehicle control (DMSO) or inhibitors at the following concentrations: Dabrafenib (1 μM), vemurafenib (10 μM), trametinib (1 μM). After 24 hours, whole-cell lysates were generated by washing cells once in phosphate-buffered saline (PBS) followed by lysis in urea sample buffer [8 M Urea, 60 mM Tris, 1% SDS, 10% glycerol, 5% β-mercaptoethanol, 0.0005% pyronin-Y, pH 6.8] for 10 min. Lysates were homogenized using a microtip probe sonicator (Fisher Scientific).
(§2) Whole-cell lysates were loaded onto NuPAGE 12% Bis-Tris Gels (Thermo-Fisher Cat. #NP0343BOX) and separated by electrophoresis using NuPAGE MES SDS Running Buffer (Thermo-Fisher Cat. #NP0002). Proteins were transferred onto Immobilon-FL membrane (Millipore of Burlington, MA, Cat. #IPFL85R) in transfer buffer (25 mM Tris, 192 mM glycine, 20% (v/v) methanol) at 50 volts (V) for 60 minutes. Membranes were blocked in Intercept tris-buffered saline (TBS) blocking buffer (LI-COR) for 60 minutes at room temperature. Membranes were probed overnight at 4° C. with the primary antibodies diluted in Intercept TBS blocking buffer (LI-COR). […]

[2] = tested on: NHEK monolayers; assay: Monolayer mechanical dissociation assay, SERCA2 inhibition with thapsigargin; details: with 1 μM TG, 24 hours; 1 μM Tram, 10 μM U0126, 20 μM PD98059, 1 μM dabrafenib
Experimental: Dispase-based mechanical dissociation assays were carried out as described (Simpson C L, et al. Am J Pathol. 2010; 177(6): p. 2921-37). Keratinocytes were plated at a density of 1×10^6 cells per well of 6-well cell culture dishes. Upon reaching confluence, the calcium concentration of the medium was adjusted to 1.3 mM. Vehicle control (DMSO) or chemical inhibitors were added at the following concentrations: […] After 24 to 72 hours, monolayers were washed with PBS and then incubated with 500 μL dispase (5 U/ml) in Hank's balanced salt solution (Stemcell Technologies of Vancouver, CA, Cat. #07913) for 30 minutes at 37° C. Next, 4.5 ml PBS was added to the wells and all liquid plus released monolayers were transferred into 15 mL conical tubes, which were placed together in a rack and inverted 5-10 times to induce mechanical stress. Monolayer fragments were transferred back into 6-well cell culture plates and imaged with a 12-megapixel digital camera. Fragments were counted in Fiji.

[3] = tested on: HET cells (THEKs); assay: Immunoblot of KRT10 and KRT14 in keratinocyte lysates; details: 1 μM Dab, 1 μM Tram, 10 μM U0126, 10 μM PD184352, 20 μM PD98059 (FIG. 10D)
Experimental: THEKs were seeded at a density of 1×10^6 cells per well of 6-well cell culture dishes in KSFM. Upon reaching confluence, KSFM was replaced with E-medium containing vehicle control (DMSO) or inhibitors at the following concentrations: Dabrafenib (1 μM), trametinib (1 μM), U0126 (10 μM), PD184352 (10 μM), or PD98059 (20 μM). After 72 hours, whole-cell lysates were generated by washing cells once in PBS followed by lysis in urea sample buffer [8 M Urea, 60 mM Tris, 1% sodium dodecyl sulfate (SDS), 10% glycerol, 5% β-mercaptoethanol, 0.0005% pyronin-Y, pH 6.8] for 10 min. Lysates were homogenized using a microtip probe sonicator (Fisher Scientific).
Whole-cell lysates were loaded onto Any kD Mini-PROTEAN TGX Precast Protein Gels (Bio-Rad) and separated by electrophoresis. Proteins were transferred onto nitrocellulose membranes (Bio-Rad) in ice-cold Towbin transfer buffer (25 mM Tris, 192 mM glycine, 20% (v/v) methanol) at 100 volts (V) for 90 minutes at 4° C. Membranes were blocked in Intercept tris-buffered saline (TBS) blocking buffer (LI-COR) for 45 min at room temperature. Membranes were probed overnight at 4° C. with the primary antibodies diluted at 1:1000 in Intercept TBS blocking buffer (LI-COR). […]

[4] = tested on: ERK; assay: Western blotting of pERK in NHEK lysates; details: Dab 1 μM or Vem 10 μM alone, 24 hours in E-medium, vs DMSO
Experimental: as §1, §2

[5] = tested on: NHEK monolayers; assay: Monolayer mechanical dissociation assay, B-RAF inhibitor model of Grover disease; details: Dabrafenib 1 μM or vemurafenib 10 μM alone, 24 h
Experimental: Dispase-based mechanical dissociation assays were carried out as described (70). Keratinocytes were plated at a density of 1×10^6 cells per well of 6-well cell culture dishes. Upon reaching confluence, the cells were switched into E-medium. Vehicle control (DMSO) or chemical inhibitors were added at the following concentrations: Dabrafenib (1 μM), vemurafenib (10 μM) trametinib (1 μM), U0126 (10 μM), or PD98059 (20 μM). After 24 h, monolayers were washed with PBS and then incubated with 500 μL dispase (5 U/ml) in Hank's balanced salt solution (Stemcell Technologies of Vancouver, Canada, Cat. #07913) for 30 minutes at 37° C. Next, 4.5 mL PBS was added to the wells and all liquid plus released monolayers were transferred into 15 mL conical tubes, which were placed together in a rack and inverted 1-10 times to induce mechanical stress. Monolayer fragments were transferred back into 6-well cell culture plates and imaged with a 12-megapixel digital camera. Fragments were counted in Fiji.

[6] = tested on: organotypic epidermis of NHEKs; assay: Organotypic epidermis treated with B-RAF inhibitors (H&E, immunostaining); details: Dab or Vem alone, 48 hours
Experimental: Inhibitors were used at the following concentrations: Dabrafenib (1 μM), vemurafenib (10 μM), trametinib (1 μM).
Paraffin-embedded formalin-fixed tissue cross-sections on glass slides were incubated at 65° C. for 2 hours. Sections were prepared for staining by immersion in 3 baths of xylenes (Fisher) for 5 minutes each, followed by 3 baths of 95% ethanol for 5 minutes each, then 70% ethanol for 5 minutes, and finally 3 baths of PBS for 5 minutes each.

## CC(C)(C)c1nc(-c2cccc(NS(=O)(=O)c3c(F)cccc3F)c2F)c(-c2ccnc(N)n2)s1 [dabrafenib]
[1]
  protein levels of classical cadherins, desmosomal cadherins (DSG1, DSG2, DSG3) and plakoglobin: did not appreciably alter
[2]
  integrity of epithelial sheets despite SERCA2 inhibition: did not promote intercellular adhesion, but rather exacerbated the effect of TG
[3]
  KRT10 by immunoblot: failed to rescue KRT10 expression
[4]
  pERK by Western blotting: sufficient to increase the active phosphorylated form of ERK (pERK)
[5]
  number of fragments upon mechanical stress: an increase in the number of fragments
[5]; listed as Dab
  number of fragments upon mechanical stress: readily fragmented
[6]
  localization of plakoglobin to cell-cell junctions: reduced localization of plakoglobin to cell-cell junctions
